Experimental findings from patent US9447033B2, “Potassium channel blockers” (Japan Tobacco Inc., priority 2008, dated 2016) are described below.

The target of assay [1] is hKv1.5 (Homo sapiens, UniProt P22460). Description: Kv1.5 Autopatch electrophysiology (whole cell). It counts as cell-based. The settings on record: hKv1.5 current, test concentration not given, read-out: hKv1.5 % Inh. Here is the method: Kv1.5 Autopatch Electraphysiogogy Method
The external bathing solution contained (in mM): 150 NaCl, 10 KCl, […], 3 MgCl2, 1 CaCl2, 10 HEPES, pH 7.4. Patch pipettes were filled with an electrode solution of composition (in mM): 160 KCl, 0.5 MgCl2, 10 HEPES, 1 EGTA, pH 7.4 with KOH.
Compounds were dissolved in DMSO (100%) and made up in the external bather at a concentration of 1 μM. All experiments were conducted at room temperature (22-24° C.).
A cell suspension (10 ml), with a density of 100,000 cells/ml, was aliquoted into a 15 ml centrifuge tube and transferred to an incubator (37° C., 5% CO2) for approximately one hour before use. Following 60 min incubation, a tube was taken and centrifuged at 1000 rpm for 4 mins at mom temperature. 9.5 ml supernatant was thence discarded, leaving a cell pellet a the bottom of the tube. The pellet was then resuspended using 100 μl of cold (4° C.), filtered (0.22 μm), 0.2% BSA/bather solution (0.02 g BSA/10 ml bather). The bottom of the tube was manually agitated gently until the solution became cloudy with cells. The 100 μl cell resuspension solution was then stored on the bench at 4° C. (using a Peltier-based temperature control device) until used.
A length of capillary glass (1B150F-4, WPI) was dipped into the cell suspension solution, such that ˜3 cm column of fluid was taken up by capillary action. A Ag/AgCl wire was dropped into the non-dipped end of the capillary also. The outside of the solution-filled end of the capillary was then dried and the capillary was loaded into the AutoPatch™.
Borosilicate glass patch pipettes (from 1.5 mm OD, thin-walled filamented, GC150-TF capillary glass, Harvard) were pulled using a DMZ pipette puller (Zeitz instruments), and were back-filled using the internal pipette solution, being careful that no bubbles remain at the tip or in the body of the pipette. Patch pipettes typically had resistances of 2.3-3.5 MΩ. Once filled, the pipette tip and a proportion of the shaft (˜15 mm) were dipped into Sigmacote (Sigma). The recording pipette was then loaded into the AutoPatch™. Automated patch-clamping was initiated by the operator, but thereafter AutoPatch.exe continued the experiment providing that pre-set conditions and criteria were satisfied.
Whole cell patch-clamp recordings were made using the AutoPatch™ rig, which incorporated an EPC9 amplifier (HEKA, Germany) under control of Pulse software (v8.54, HEKA, Germany), a motion controller with 2 translators (Newport, UK), valve controller (VFI) and a c-level suction device all at room temperature (22-24° C.). This equipment was completely under the control of AutoPatch.exe and operator intervention was only made when there was a requirement to refill the drug reservoirs or to prevent the loss of a cell due to a technical error. Cells with an Rseries greater than 18 MΩ were discounted from the experiment.
Qualification stages prior to perfusion and drug application ensured that the observed current met the criteria for the experiment. Only those cells with an 1K>500 pA were used for experiments. Cells were continuously perfused with external solution at a flow rate of 1.8-2 ml/minute. […]
Electrophysiology voltage-step protocols and analysis of data was performed as follows. […] Currents were analysed using Pulsefit software (v8.54, HEKA, Germany), with the total charge measured during the whole of the voltage step. […]

In assay [2] the target is T1, human Kv1.3 (Homo sapiens, UniProt P22001).
T1 construct: expressed in transfected cells
Description: Kv1.3 Autopatch electrophysiology (whole cell). As to conditions: compound at 1 μM; inhibition of charge movement relative to control; room temperature; read-out: hKv1.3 % Inh. It counts as cell-based. Here is the method:
Kv1.3 Autopatch Electrophysiology Method
Cells stably transfected with cDNA for human Kv1.3 (in pcDNA3.1) were grown in Ex-cell 302 serum-free medium for CHO cells, supplemented with 10 μl/ml [100×] glutamine, 500 μg/ml G418 ([…]), and 1% HT supplement (50×, hypoxanthine and thymidine). Compounds were tested on these cells using the AutoPatch technology in whole cell mode.
The external bathing solution contained (in mM): 150 NaCl, 10 KCl, MgCl2, 3 CaCl2, 10 HEPES, pH 7.4 with NaOH. Patch pipettes were filled with an electrode solution of composition (in mM): 100 K-Gluconate, 20 KCl, 1 MgCl2, CaCl2, 10 HEPES, 11 EGTA, 5 ATP-Na2, 2 Glutathione pH 7.2 with KOH.
Compounds were dissolved in DMSO (100%) and made up in the external bather at a concentration of 1 μM immediately prior to use. All experiments were conducted at room temperature.
A cell suspension (10 ml), with a density of 6×10^6 cells, was aliquoted into a 15 ml centrifuge tube and stored at 4° C. before use. Prior to use a tube was taken and centrifuged at 1000 rpm for 4 mins at room temperature. The supernatant was then discarded, leaving a cell pellet at the bottom of the tube. The pellet was then resuspended using 1 ml of cold (4° C.), filtered (0.22 μm), 0.05% BSA/bather solution (0.05 g BSA/100 ml bather). The bottom of the tube was manually agitated followed by gentle tituration. The cell suspension was then placed in the AutoPatch™ temperature controlled cell-hotel at 14° C. and regularly titurated.
A length of Teflon capillary tubing was dipped into the cell suspension solution, and a column of fluid was taken up by negative pressure. The column of fluid was in electrically connectivity with a Ag/AeCl reference electrode. Borosilicate glass patch pipettes (from 1.5 mm OD, thin-walled filamented, GC150-TF capillary glass, Harvard) were pulled using a DMZ pipette puller (Zeitz Instruments), and were back-filled using the internal pipette solution, being careful that no bubbles remained at the tip or in the body of the pipette. Patch pipettes typically had resistances of 2.5-3.5 MΩ. Once filled, the pipette tip and a proportion of the shaft (˜15 mm) were dipped into Sigmacote (Sigma). The recording pipettes were placed in a multiwell array and mounted on the AutoPatch™ machine. Automated patch-clamping and drug-application was initiated by the operator, but thereafter AutoPatch.exe continued the experiment providing that pre-set conditions and criteria were satisfied.
Whole cell patch-clamp recordings were made using the AutoPatch™ rig, which incorporated an EPC9 or EPC10 amplifier (HEKA, Germany) under control of Pulse software (v8.54 or v8.76, HEKA, Germany), a cell applicator, automated drug application system (DAS), valve controller (VFI) and a suction device all at room temperature. This equipment was completely under the control of AutoPatch.exe and operator intervention was only made when there was a requirement to refill the bather reservoirs or to prevent the loss of a cell due to a technical error. […]
Electrophysiology voltage-step protocols and analysis of data was performed as follows. […] Online analysis of the hKv1.3 current during the application of compounds was performed by the Pulse (v8.54 or v8.76, HEKA, Germany), Excel (Microsoft, USA) and AutoPatch™ software, with the total charge measured during the whole of voltage step. Inhibition of charge movement in the presence of drug was calculated relative to control.

hKv1.5, sequence (P22460 whole entry): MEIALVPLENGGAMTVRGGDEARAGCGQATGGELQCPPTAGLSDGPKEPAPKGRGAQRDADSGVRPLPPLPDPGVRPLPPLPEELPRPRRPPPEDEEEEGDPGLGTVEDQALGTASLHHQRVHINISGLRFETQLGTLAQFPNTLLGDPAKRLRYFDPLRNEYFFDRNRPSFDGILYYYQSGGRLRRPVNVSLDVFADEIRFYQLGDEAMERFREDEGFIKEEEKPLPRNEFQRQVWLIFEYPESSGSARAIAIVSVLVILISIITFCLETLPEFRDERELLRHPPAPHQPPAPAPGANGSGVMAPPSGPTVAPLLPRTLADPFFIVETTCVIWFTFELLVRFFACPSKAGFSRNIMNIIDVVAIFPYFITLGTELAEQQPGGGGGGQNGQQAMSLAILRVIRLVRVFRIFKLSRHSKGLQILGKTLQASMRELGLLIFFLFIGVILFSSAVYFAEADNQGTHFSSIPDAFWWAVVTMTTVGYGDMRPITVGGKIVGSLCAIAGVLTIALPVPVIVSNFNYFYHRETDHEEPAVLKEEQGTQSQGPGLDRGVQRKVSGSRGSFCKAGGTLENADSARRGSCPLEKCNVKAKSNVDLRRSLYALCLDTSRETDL
T1 sequence (P22001 whole entry): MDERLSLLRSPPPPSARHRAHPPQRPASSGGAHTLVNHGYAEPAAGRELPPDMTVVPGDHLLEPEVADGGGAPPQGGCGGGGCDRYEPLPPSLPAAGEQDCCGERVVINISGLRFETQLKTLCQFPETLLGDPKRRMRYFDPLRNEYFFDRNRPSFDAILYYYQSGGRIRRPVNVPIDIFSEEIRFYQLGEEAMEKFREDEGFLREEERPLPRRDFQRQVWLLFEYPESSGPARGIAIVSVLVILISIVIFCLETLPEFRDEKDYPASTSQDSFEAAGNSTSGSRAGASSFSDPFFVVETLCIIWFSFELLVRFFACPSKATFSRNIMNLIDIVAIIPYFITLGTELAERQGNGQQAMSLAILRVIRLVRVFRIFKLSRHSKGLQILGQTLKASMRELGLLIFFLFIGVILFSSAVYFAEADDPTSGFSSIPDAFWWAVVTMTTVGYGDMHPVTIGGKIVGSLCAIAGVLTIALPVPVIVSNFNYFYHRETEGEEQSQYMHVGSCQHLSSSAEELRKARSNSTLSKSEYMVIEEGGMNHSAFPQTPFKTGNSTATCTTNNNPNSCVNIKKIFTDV

Consider `Cn1ccc(S(=O)(=O)N(Cc2ccc(Cl)cc2)c2cccc(C(=O)NCCO)c2)n1` [Example 1, 3-[(4-Chloro-benzyl)-(1-methyl-1H-pyrazole-3-sulfonyl)-amino]-N-(2-hydroxy-ethyl)-benzamide], for which the inhibition at 1 µM came out at 48% in assay [1] and 86% in assay [2].
On to `CC(C)NC(=O)c1cccc(N(Cc2ccccc2)S(=O)(=O)c2cccnc2)c1` [Example 3, 3-[Benzyl-(pyridine-3-sulfonyl)-amino]-N-isopropyl-benzamide], for which the inhibition at 1 µM in assay [1] stood at 52%; in assay [2], 92%.
On to `O=C(Nc1ccc2cn[nH]c2c1)c1cccc(N(Cc2ccccc2)S(=O)(=O)c2ccccc2)c1` [Example 4, 3-(Benzenesulfonyl-benzyl-amino)-N-(1H-indazol-6-yl)-benzamide], for which the inhibition at 1 µM turned out to be 99% in assay [1] and 88% in assay [2].
Consider `CC(=O)Nc1ccc(S(=O)(=O)N(Cc2ccccc2)c2cccc(C(=O)NC(C)C)c2)cc1` [Example 5, 3-[(4-Acetylamino-benzenesulfonyl)-benzyl-amino]-N-isopropyl-benzamide], for which the inhibition at 1 µM in assay [1] was determined as 18%; in assay [2], 45%.
In the case of `CC(C)NC(=O)c1cccc(N(Cc2ccc(Cl)cc2)S(=O)(=O)c2ccnn2C)c1` [Example 7, 3-[(4-Chloro-benzyl)-(2-methyl-2H-pyrazole-3-sulfonyl)-amino]-N-isopropyl-benzamide], the inhibition at 1 µM in assay [1] worked out at 54%; in assay [2] it was 57%.
